From the Kinase Knowledgebase extract (Sharma et al. 2016)

Target: ROCK2 (human) (UniProt O75116)
Assay: Inhibition of ROCK2 Kinase Activity

Chain of ROCK2 (human) (O75116 whole entry, looked up): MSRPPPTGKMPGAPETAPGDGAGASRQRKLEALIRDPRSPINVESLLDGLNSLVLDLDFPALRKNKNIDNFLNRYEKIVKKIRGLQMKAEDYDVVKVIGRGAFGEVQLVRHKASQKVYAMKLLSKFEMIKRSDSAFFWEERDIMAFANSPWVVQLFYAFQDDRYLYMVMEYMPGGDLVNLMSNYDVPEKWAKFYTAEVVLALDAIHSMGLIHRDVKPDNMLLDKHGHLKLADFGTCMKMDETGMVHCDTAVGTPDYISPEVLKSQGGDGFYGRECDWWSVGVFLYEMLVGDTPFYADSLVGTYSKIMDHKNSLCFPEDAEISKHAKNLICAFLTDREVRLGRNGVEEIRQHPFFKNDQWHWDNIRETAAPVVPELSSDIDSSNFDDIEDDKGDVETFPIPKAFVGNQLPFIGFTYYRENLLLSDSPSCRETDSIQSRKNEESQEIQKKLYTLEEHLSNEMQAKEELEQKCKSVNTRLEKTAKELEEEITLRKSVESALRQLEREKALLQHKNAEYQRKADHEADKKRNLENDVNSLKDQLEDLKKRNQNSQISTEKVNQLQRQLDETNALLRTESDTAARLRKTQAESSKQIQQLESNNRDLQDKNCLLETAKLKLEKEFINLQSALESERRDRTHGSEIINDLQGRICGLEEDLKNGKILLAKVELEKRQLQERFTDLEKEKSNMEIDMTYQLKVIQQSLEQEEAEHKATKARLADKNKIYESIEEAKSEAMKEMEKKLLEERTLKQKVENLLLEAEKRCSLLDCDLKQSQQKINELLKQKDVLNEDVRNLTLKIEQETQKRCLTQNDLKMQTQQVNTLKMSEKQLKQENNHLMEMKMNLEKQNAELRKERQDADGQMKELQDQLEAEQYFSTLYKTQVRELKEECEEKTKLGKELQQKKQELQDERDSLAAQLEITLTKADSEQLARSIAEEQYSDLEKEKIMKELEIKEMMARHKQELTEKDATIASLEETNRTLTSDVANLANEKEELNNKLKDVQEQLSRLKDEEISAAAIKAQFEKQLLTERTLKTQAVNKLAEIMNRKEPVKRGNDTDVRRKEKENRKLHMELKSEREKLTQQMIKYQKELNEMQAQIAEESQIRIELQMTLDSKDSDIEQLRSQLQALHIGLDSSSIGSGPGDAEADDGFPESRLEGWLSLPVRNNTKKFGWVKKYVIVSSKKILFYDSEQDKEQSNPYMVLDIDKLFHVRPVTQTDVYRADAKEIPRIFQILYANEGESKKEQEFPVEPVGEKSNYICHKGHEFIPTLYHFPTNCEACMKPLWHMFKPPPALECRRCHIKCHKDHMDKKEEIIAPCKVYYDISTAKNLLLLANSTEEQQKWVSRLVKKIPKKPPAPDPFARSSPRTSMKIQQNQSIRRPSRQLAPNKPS

Row | Structure (SMILES) | IC50 [nM]
1 | Cc1cc(S(=O)(=O)N2CCNCC2)ccc1C(=O)Nc1cc2cc[nH]c(=O)c2cc1Cl | < 1000
2 | NC(Cc1ccc(F)cc1)C(=O)Nc1cc2cc[nH]c(=O)c2cc1Cl (stereo not drawn) | < 1000
3 | O=C(Nc1cc2cc[nH]c(=O)c2cc1Cl)c1ccc2c(c1)CNCC2 | < 1000
4 | O=C(Nc1cc2cc[nH]c(=O)c2cc1Cl)[C@@H]1[C@@H]2CNC[C@@H]21 | < 1000
5 | O=C(Nc1ccc2c(=O)[nH]ccc2c1)C1CNCC1c1ccc(F)cc1 (stereo not drawn) | < 1000
6 | O=C(Nc1cc2cc[nH]c(=O)c2cc1Cl)[C@H]1CNC[C@@H]1c1ccc(F)cc1 | < 1000
7 | O=C(Nc1cc2cc[nH]c(=O)c2cc1Cl)C(NCC1CC1)c1ccccc1 (stereo not drawn) | < 1000
8 | O=C(Nc1ccc2c(=O)[nH]cnc2c1)C1CCCNC1 (stereo not drawn) | < 1000
9 | CC(C)(Oc1ccc(Cl)cc1)C(=O)Nc1ccc2c(=O)[nH]ccc2c1 | < 1000
10 | Cc1cc(S(C)(=O)=O)ccc1C(=O)Nc1cc2cc[nH]c(=O)c2cc1Cl | < 1000
11 | O=C(Nc1cc2cc[nH]c(=O)c2cc1Cl)C(O)c1ccccc1 (stereo not drawn) | < 1000
12 | N[C@@H](C(=O)Nc1ccc2c(=O)[nH]cnc2c1)c1ccccc1 | < 1000
13 | N[C@H]1CCC[C@@H](C(=O)Nc2cc3cc[nH]c(=O)c3cc2Cl)C1 | < 1000
14 | O=C(CNCC1CC1)Nc1ccc2c(=O)[nH]cnc2c1 | < 1000

Next, values leading:

Row | IC50 [nM] | Structure (SMILES)
15 | < 1000 | N[C@H]1CC[C@@](C(=O)Nc2cc3cc[nH]c(=O)c3cc2Cl)(c2ccc(Cl)cc2)CC1
16 | < 1000 | O=C(CNCc1ccccc1)Nc1ccc2c(=O)[nH]cnc2c1
17 | < 1000 | O=C(Nc1ccc2c(=O)[nH]ccc2c1)c1cccnc1Oc1ccc(Cl)cc1
18 | < 1000 | O=C(Cc1ccc(F)cc1)Nc1cc2cc[nH]c(=O)c2cc1Cl
19 | < 1000 | O=C(Nc1cc2cc[nH]c(=O)c2cc1Cl)[C@@H]1CCCNC1
20 | < 1000 | O=C(Nc1cc2cc[nH]c(=O)c2cc1Cl)C1CCOCC1
21 | < 1000 | O=C(CNCCc1cccs1)Nc1ccc2c(=O)[nH]cnc2c1
22 | < 1000 | O=C(CNCc1cccnc1)Nc1cc2cc[nH]c(=O)c2cc1Cl
23 | < 1000 | CC(=O)OC(C(=O)Nc1cc2cc[nH]c(=O)c2cc1Cl)c1ccccc1 (stereo not drawn)
24 | < 1000 | O=C(Nc1cc2cc[nH]c(=O)c2cc1Cl)C(NC1CCC1)c1ccccc1 (stereo not drawn)
25 | < 1000 | O=C(Nc1cc2cc[nH]c(=O)c2cc1Cl)c1cccc2c1CNCC2
26 | < 1000 | CO[C@H](C(=O)Nc1cc2cc[nH]c(=O)c2cc1Cl)c1ccccc1
27 | < 1000 | O=C(Nc1cc2nc[nH]c(=O)c2cc1Cl)C(NC1CC1)c1ccccc1 (stereo not drawn)
28 | < 1000 | Cc1ccc(C(=O)Nc2cc3cc[nH]c(=O)c3cc2Cl)c(Br)c1
29 | < 1000 | COC(=O)C[C@@H](C)C(=O)Nc1cc2cc[nH]c(=O)c2cc1Cl
30 | < 1000 | O=C(Nc1ccc2c(=O)[nH]ccc2c1)C1(c2ccc(Cl)cc2)CCCC1
31 | < 1000 | NC(C(=O)Nc1ccc2c(=O)[nH]cnc2c1)c1ccccc1 (stereo not drawn)
32 | < 1000 | CN1CCN(CC(=O)Nc2cc3cc[nH]c(=O)c3cc2Cl)CC1
33 | < 1000 | O=C(Nc1cc2cc[nH]c(=O)c2cc1Cl)[C@H]1CNC[C@@H]1c1ccccc1
